Data from ChEMBL document CHEMBL4152280, “Binding mechanism investigations guiding the synthesis of novel condensed 1,4-dihydropyridine derivatives with L-/T-type calcium channel blocking activity” (Eur J Med Chem, 2018).
The source made the active and inactive calls. The rule behind the calls is not given here.

Target: Voltage-dependent T-type calcium channel subunit alpha-1H (Homo sapiens) (UniProt O95180)
Assay: Inhibition of human Cav3.2 at 10 uM at -110 mV holding potential by patch clamp electrophysiology assay

Sequence of Voltage-dependent T-type calcium channel subunit alpha-1H (Homo sapiens) (O95180 whole entry): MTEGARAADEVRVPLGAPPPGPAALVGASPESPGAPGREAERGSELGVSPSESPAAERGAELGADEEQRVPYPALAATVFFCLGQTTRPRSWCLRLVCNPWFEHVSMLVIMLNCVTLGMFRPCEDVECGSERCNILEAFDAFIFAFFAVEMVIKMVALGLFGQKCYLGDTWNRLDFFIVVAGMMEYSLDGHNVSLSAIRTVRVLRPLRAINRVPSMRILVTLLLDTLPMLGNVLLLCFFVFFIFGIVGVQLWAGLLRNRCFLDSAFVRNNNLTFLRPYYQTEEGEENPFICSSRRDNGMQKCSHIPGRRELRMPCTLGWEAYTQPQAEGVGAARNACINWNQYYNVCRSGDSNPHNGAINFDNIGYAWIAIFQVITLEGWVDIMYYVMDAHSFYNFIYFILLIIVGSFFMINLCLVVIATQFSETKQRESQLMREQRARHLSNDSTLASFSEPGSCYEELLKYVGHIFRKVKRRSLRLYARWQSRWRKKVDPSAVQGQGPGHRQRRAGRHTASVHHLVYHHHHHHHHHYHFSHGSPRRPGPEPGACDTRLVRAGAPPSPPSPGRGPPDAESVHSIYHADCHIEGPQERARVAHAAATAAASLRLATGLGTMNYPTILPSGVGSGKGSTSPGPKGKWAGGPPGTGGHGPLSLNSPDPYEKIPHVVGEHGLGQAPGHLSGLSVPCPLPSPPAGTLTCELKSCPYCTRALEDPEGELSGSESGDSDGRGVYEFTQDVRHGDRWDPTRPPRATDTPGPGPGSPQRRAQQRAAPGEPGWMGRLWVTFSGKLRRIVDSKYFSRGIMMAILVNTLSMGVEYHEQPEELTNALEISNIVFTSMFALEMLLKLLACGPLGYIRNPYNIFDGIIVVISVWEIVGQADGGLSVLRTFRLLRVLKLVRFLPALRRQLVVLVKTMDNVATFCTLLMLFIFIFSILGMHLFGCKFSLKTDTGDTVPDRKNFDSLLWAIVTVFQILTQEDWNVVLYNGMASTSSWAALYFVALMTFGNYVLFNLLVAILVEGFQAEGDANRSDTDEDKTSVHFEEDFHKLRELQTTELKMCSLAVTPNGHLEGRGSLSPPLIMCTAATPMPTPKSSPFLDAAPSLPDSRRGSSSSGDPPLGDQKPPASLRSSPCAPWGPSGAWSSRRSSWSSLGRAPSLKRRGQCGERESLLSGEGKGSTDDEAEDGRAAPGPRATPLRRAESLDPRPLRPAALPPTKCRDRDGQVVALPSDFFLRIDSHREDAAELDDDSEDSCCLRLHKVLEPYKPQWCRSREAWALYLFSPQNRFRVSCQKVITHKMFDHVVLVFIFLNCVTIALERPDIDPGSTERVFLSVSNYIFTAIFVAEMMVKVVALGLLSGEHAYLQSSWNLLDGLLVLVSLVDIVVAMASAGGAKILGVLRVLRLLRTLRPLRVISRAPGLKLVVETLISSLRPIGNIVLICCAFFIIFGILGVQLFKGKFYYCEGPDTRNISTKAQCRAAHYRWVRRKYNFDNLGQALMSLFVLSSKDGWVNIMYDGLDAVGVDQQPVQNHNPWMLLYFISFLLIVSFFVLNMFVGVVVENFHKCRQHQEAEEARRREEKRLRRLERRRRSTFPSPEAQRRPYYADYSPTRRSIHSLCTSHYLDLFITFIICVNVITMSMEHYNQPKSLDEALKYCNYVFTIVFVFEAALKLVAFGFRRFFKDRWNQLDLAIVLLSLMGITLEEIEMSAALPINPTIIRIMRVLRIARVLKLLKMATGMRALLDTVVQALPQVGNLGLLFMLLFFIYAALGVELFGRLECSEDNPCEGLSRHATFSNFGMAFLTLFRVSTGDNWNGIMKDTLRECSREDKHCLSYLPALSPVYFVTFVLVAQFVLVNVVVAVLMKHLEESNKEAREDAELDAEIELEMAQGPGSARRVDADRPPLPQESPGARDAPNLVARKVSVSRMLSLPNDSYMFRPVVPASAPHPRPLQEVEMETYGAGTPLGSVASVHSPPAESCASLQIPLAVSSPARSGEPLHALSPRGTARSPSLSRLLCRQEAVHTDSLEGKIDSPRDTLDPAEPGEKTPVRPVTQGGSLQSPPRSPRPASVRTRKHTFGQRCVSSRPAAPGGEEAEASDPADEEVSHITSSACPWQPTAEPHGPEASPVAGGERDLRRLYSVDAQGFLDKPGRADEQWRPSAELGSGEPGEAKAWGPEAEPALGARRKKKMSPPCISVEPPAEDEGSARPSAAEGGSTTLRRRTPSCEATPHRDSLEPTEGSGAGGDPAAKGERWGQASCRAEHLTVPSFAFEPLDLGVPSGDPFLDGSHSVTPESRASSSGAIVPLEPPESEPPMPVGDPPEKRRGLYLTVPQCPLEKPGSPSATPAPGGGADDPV

Row | inhibition | Compound
1 | Active | CC1=C(C(=O)OCC(C)C)C(c2ccc(O)c(C(F)(F)F)c2)C2=C(CCC(C)(C)C2=O)N1 (centres undefined)
2 | Active | CCOC(=O)C1=C(C)NC2=C(C(=O)C(C)(C)CC2)C1c1cc(Br)cc([N+](=O)[O-])c1O (centres undefined)
3 | Active | CC1=C(C(=O)OCC(C)C)C(c2cc([N+](=O)[O-])cc([N+](=O)[O-])c2O)C2=C(CCC(C)(C)C2=O)N1 (centres undefined)
4 | Active | CCOC(=O)C1=C(C)NC2=C(C(=O)C(C)(C)CC2)C1c1ccc(O)c(C(F)(F)F)c1 (centres undefined)

Target: Cav1.2 (voltage-dependent L-type calcium channel subunit alpha-1C) (Rattus norvegicus, UniProt P22002)
Sequence (P22002 whole entry): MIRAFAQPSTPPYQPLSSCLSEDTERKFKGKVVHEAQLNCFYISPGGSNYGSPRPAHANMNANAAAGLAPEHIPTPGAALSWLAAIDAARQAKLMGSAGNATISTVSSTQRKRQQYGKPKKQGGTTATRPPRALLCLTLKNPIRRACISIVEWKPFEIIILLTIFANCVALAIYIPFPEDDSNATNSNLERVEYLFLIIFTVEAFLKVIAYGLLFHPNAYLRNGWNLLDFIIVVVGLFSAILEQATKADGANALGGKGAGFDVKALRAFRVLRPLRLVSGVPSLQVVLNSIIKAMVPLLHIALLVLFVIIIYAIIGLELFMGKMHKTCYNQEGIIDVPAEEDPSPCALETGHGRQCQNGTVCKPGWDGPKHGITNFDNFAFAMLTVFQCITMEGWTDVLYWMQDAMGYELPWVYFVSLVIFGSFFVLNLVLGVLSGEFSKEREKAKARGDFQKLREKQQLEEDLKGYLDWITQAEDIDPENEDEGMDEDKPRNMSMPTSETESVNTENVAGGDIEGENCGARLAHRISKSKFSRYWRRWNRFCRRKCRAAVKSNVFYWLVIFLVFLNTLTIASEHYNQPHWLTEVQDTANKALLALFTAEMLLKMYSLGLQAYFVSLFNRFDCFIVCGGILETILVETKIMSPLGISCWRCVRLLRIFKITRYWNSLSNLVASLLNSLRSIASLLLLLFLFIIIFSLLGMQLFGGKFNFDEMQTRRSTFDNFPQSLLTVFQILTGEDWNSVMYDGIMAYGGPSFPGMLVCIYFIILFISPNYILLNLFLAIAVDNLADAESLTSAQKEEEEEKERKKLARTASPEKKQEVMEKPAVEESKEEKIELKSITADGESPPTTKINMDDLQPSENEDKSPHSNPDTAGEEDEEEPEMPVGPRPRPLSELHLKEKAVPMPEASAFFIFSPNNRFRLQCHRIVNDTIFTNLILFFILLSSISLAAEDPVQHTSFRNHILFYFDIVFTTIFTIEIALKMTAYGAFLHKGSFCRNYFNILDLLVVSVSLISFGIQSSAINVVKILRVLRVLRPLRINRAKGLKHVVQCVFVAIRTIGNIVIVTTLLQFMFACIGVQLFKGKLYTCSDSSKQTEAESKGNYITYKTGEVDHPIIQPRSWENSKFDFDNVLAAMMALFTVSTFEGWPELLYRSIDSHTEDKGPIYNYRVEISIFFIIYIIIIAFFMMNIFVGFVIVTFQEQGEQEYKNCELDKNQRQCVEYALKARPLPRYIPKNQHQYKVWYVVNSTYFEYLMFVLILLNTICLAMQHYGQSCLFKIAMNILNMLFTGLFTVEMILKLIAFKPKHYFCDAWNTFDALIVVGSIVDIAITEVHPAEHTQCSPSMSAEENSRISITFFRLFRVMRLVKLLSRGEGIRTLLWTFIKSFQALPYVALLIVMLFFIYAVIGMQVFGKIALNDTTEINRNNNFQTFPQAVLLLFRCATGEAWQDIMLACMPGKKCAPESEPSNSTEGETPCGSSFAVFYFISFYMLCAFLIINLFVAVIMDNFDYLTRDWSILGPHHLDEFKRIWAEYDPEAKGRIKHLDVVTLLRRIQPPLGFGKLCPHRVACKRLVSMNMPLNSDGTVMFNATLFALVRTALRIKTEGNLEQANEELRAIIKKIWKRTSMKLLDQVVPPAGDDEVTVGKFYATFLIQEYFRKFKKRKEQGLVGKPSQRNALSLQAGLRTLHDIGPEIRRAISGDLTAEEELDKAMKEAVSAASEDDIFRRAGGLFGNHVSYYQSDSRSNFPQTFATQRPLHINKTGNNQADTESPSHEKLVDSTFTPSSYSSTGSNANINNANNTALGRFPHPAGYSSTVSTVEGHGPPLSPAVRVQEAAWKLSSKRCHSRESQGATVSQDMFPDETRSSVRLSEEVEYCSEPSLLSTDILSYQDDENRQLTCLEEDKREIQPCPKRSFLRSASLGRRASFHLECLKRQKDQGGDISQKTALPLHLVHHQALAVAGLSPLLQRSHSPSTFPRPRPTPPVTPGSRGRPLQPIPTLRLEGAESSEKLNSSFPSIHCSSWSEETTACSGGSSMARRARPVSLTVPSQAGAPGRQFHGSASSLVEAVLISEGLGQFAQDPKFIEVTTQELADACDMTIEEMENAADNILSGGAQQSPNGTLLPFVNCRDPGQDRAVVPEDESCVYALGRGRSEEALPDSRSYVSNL
Assay: Inhibition of rat Cav1.2 at 10 uM at -90 mV holding potential by patch clamp electrophysiology assay relative to control

Row | Compound | inhibition at 10 µM [%]
5 | CC1=C(C(=O)OCC(C)C)C(c2cc([N+](=O)[O-])cc(Br)c2O)C2=C(CCC(C)(C)C2=O)N1 (centres undefined) | 15
6 | CC1=C(C(=O)OCC(C)C)C(c2cc([N+](=O)[O-])cc(Br)c2O)C2=C(CC(C)(C)CC2=O)N1 (centres undefined) | 70
7 | COC(=O)C1=C(C)NC2=C(C(=O)C(C)(C)CC2)C1c1cc([N+](=O)[O-])ccc1O (centres undefined) | < 30
8 | CCOC(=O)C1=C(C)NC2=C(C(=O)C(C)(C)CC2)C1c1cc([N+](=O)[O-])ccc1O (centres undefined) | 70
9 | CC1=C(C(=O)OC(C)(C)C)C(c2cc([N+](=O)[O-])ccc2O)C2=C(CCC(C)(C)C2=O)N1 (centres undefined) | < 30
10 | CCOC(=O)C1=C(C)NC2=C(C(=O)C(C)(C)CC2)C1c1cc(Br)cc([N+](=O)[O-])c1O (centres undefined) | 50
11 | CC1=C(C(=O)OCC(C)C)C(c2cc([N+](=O)[O-])ccc2O)C2=C(CC(C)(C)CC2=O)N1 (centres undefined) | 30
12 | CC1=C(C(=O)OCC(C)C)C(c2cc(Br)cc([N+](=O)[O-])c2O)C2=C(CCC(C)(C)C2=O)N1 (centres undefined) | 10
13 | CC1=C(C(=O)OCc2ccccc2)C(c2cc([N+](=O)[O-])ccc2O)C2=C(CCC(C)(C)C2=O)N1 (centres undefined) | 70
14 | CC1=C(C(=O)OCC(C)C)C(c2cc([N+](=O)[O-])ccc2O)C2=C(CCC(C)(C)C2=O)N1 (centres undefined) | 70
